Experiments:
potassium arsenate = compound: O=[As]([O-])(O)O.[K+] [potassium arsenate]; experiment: thermal stability z-score vs DMSO; higher = more thermally stabilized by treatment; details: HeLa; arsenate concentration 1 mM
Protocol: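 Cellular thermal proteome profiling in HeLa cells treated with 1 mM arsenate for 1 h (DMSO pretreatment), heated to ten temperatures (37-66.3 °C). Soluble protein was quantified by TMT mass spectrometry relative to DMSO controls; the thermal stability score was transformed to a z-score; mean of n = 3 experiments.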

lipoamide = compound: NC(=O)CCCCC1CCSS1 [lipoamide]; experiment: as above; details: HeLa, lipoamide concentration 100 µM
Protocol: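 Cellular thermal proteome profiling in HeLa cells. Cells were treated with 100 µM lipoamide for 1 h, with or without 1 mM arsenate for a further 1 h, then heated to ten temperatures (37-66.3 °C), and soluble protein was quantified by TMT mass spectrometry relative to 0.1% DMSO controls. The thermal stability score (sum of log2 fold changes minus the abundance score) was transformed to a z-score; mean of n = 3 experiments.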

[1] = arsenate co-treatment: 1 mM arsenate 1 h
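Further: each temperature applied for 3 min, abundance score taken as mean log2 fold change at the two lowest temperatures, z-score obtained by mean subtraction and division by SD.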

Target: NAGLU (UniProt P54802)
- thermal stability z-score (potassium arsenate): 0.253
- thermal stability z-score (lipoamide; [1]): 0.208
- thermal stability z-score (lipoamide; arsenate co-treatment: none): -0.281

Target: DISP1 (UniProt Q96F81)
- thermal stability z-score (potassium arsenate): -1.07
- thermal stability z-score (lipoamide; [1]): 0.342
- thermal stability z-score (lipoamide; arsenate co-treatment: none): 0.512

Target: GTF2B (UniProt Q00403)
Chain of UniProt Q00403 (Q00403 whole entry): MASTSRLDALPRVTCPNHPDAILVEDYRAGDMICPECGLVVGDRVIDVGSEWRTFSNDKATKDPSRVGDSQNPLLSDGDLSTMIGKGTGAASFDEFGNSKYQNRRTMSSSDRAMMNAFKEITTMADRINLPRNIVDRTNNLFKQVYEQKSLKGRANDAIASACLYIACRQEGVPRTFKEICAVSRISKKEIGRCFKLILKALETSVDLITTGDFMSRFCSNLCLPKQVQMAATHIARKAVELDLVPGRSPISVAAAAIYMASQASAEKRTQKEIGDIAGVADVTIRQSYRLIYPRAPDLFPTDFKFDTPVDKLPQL
- thermal stability z-score (potassium arsenate): -1.93
- thermal stability z-score (lipoamide; [1]): -0.0775
- thermal stability z-score (lipoamide; arsenate co-treatment: none): 0.338

Target: HIRIP3 (UniProt Q9BW71)
- thermal stability z-score (potassium arsenate): 0.468
- thermal stability z-score (lipoamide; [1]): -0.148
- thermal stability z-score (lipoamide; arsenate co-treatment: none): 0.462

Target: CMPK1 (UniProt P30085)
Chain of UniProt P30085 (P30085 whole entry): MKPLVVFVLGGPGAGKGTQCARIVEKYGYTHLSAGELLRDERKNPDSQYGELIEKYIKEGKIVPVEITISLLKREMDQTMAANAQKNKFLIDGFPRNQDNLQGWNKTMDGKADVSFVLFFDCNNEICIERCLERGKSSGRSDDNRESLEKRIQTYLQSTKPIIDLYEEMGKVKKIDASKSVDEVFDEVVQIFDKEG
- thermal stability z-score (potassium arsenate): 2.02
- thermal stability z-score (lipoamide; [1]): -0.127
- thermal stability z-score (lipoamide; arsenate co-treatment: none): 0.136

Target: HSPA9 (UniProt P38646)
- thermal stability z-score (potassium arsenate): -1.36
- thermal stability z-score (lipoamide; [1]): -1.1
- thermal stability z-score (lipoamide; arsenate co-treatment: none): -0.531

Target: RPN2 (UniProt P04844)
Chain of UniProt P04844 (P04844 whole entry): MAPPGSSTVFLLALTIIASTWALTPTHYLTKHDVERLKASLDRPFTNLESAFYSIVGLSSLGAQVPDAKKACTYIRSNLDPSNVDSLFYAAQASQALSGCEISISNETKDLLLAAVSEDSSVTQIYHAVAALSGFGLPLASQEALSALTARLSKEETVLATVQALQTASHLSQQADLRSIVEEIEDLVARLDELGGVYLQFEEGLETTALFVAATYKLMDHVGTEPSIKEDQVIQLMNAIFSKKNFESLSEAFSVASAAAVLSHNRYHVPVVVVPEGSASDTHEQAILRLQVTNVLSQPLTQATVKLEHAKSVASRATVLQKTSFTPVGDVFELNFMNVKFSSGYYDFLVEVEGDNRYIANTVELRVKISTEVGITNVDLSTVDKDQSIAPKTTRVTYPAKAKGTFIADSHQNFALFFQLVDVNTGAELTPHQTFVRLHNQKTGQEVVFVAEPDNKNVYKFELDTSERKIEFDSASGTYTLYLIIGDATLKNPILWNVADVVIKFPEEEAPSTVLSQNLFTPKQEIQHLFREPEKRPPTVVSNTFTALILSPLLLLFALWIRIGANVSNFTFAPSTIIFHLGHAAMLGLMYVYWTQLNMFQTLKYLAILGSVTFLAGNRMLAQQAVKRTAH
- thermal stability z-score (potassium arsenate): 0.141
- thermal stability z-score (lipoamide; [1]): -2.41
- thermal stability z-score (lipoamide; arsenate co-treatment: none): -1.79

Target: PPP1CB (UniProt P62140)
Chain of UniProt P62140 (P62140 whole entry): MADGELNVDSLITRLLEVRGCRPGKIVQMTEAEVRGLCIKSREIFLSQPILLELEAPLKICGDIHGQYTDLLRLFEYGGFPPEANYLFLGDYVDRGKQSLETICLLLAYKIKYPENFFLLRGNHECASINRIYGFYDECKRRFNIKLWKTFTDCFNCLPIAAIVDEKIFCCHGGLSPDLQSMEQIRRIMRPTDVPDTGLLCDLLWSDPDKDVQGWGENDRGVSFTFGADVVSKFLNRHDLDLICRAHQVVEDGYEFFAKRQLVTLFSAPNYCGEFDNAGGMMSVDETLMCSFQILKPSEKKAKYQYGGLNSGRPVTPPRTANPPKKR
- thermal stability z-score (potassium arsenate): 0.32
- thermal stability z-score (lipoamide; [1]): 0.928
- thermal stability z-score (lipoamide; arsenate co-treatment: none): -0.00317

Target: ASCC1 (UniProt Q8N9N2)
- thermal stability z-score (potassium arsenate): -0.708
- thermal stability z-score (lipoamide; [1]): -1.01
- thermal stability z-score (lipoamide; arsenate co-treatment: none): -0.215

Target: EEF2KMT (UniProt Q96G04)
Chain of UniProt Q96G04 (Q96G04 whole entry): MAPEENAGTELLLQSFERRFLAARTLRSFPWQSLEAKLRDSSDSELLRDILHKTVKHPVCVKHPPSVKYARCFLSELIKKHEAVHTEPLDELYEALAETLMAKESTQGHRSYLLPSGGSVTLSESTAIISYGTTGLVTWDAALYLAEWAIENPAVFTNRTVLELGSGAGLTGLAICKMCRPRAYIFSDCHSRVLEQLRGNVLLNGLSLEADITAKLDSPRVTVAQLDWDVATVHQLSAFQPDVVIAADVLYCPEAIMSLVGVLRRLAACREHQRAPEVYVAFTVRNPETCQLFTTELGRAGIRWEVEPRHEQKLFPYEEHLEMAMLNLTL
- thermal stability z-score (potassium arsenate): 0.0729
- thermal stability z-score (lipoamide; [1]): 0.0521
- thermal stability z-score (lipoamide; arsenate co-treatment: none): 0.046

Target: SNRPD2 (UniProt P62316)
Chain of UniProt P62316 (P62316 whole entry): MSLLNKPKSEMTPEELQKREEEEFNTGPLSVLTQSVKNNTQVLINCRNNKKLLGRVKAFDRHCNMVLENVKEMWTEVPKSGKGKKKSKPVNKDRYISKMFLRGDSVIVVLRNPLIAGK
- thermal stability z-score (potassium arsenate): 1.15
- thermal stability z-score (lipoamide; [1]): 1.08
- thermal stability z-score (lipoamide; arsenate co-treatment: none): 0.689

Target: C2ORF49 (UniProt Q9BVC5)
Chain of UniProt Q9BVC5 (Q9BVC5 whole entry): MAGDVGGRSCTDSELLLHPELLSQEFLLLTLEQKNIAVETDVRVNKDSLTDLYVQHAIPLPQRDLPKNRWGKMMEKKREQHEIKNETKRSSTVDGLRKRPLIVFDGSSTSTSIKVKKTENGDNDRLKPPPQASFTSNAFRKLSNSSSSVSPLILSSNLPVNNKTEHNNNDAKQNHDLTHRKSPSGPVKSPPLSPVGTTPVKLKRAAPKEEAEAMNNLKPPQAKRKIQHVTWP
- thermal stability z-score (potassium arsenate): 0.0813
- thermal stability z-score (lipoamide; [1]): 0.426
- thermal stability z-score (lipoamide; arsenate co-treatment: none): 0.229

Target: SRI (UniProt P30626)
- thermal stability z-score (potassium arsenate): 0.177
- thermal stability z-score (lipoamide; [1]): 1.28
- thermal stability z-score (lipoamide; arsenate co-treatment: none): 0.78

Target: LSM8 (UniProt O95777)
Chain of UniProt O95777 (O95777 whole entry): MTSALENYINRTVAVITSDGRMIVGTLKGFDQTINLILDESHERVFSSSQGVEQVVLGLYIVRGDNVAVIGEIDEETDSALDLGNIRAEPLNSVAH
- thermal stability z-score (potassium arsenate): -0.214
- thermal stability z-score (lipoamide; [1]): 1.17
- thermal stability z-score (lipoamide; arsenate co-treatment: none): 0.47

Target: NUDCD2 (UniProt Q8WVJ2)
Chain of UniProt Q8WVJ2 (Q8WVJ2 whole entry): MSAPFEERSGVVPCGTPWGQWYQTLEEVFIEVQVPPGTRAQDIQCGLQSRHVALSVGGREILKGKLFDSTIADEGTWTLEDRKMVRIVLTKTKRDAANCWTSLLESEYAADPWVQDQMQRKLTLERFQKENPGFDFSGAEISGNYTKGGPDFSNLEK
- thermal stability z-score (potassium arsenate): 0.58
- thermal stability z-score (lipoamide; [1]): 0.599
- thermal stability z-score (lipoamide; arsenate co-treatment: none): 0.779

Target: ARMC6 (UniProt Q6NXE6)
- thermal stability z-score (potassium arsenate): 1.37
- thermal stability z-score (lipoamide; [1]): -0.546
- thermal stability z-score (lipoamide; arsenate co-treatment: none): -0.743

Target: SAC3D1 (UniProt A6NKF1)
- thermal stability z-score (potassium arsenate): -1.27
- thermal stability z-score (lipoamide; [1]): -1.55
- thermal stability z-score (lipoamide; arsenate co-treatment: none): -1.63

Target: GIT2 (UniProt Q14161)
Chain of UniProt Q14161 (Q14161 whole entry): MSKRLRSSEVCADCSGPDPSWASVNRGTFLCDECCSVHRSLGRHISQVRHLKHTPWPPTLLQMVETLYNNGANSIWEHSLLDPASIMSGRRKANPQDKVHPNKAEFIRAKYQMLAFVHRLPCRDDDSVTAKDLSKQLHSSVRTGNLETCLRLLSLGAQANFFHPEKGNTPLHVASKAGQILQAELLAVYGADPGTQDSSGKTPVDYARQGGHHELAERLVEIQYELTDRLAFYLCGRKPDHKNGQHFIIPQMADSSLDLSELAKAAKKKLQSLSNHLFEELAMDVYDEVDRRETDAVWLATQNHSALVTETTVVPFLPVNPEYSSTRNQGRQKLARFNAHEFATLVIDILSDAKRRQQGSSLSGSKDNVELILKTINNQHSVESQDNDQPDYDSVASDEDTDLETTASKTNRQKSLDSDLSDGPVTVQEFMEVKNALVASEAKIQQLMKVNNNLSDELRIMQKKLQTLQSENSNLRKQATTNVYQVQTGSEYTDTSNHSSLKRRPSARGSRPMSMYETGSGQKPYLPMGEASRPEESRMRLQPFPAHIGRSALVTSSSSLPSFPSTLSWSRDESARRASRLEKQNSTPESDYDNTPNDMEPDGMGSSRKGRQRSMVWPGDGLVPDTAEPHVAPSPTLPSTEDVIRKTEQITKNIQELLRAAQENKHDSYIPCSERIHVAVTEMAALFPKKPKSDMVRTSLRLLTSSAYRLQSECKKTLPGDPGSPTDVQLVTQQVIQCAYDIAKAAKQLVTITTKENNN
- thermal stability z-score (potassium arsenate): 1
- thermal stability z-score (lipoamide; [1]): 1.13
- thermal stability z-score (lipoamide; arsenate co-treatment: none): 1.87

Target: UBE2K (UniProt P61086)
- thermal stability z-score (potassium arsenate): -0.201
- thermal stability z-score (lipoamide; [1]): 0.398
- thermal stability z-score (lipoamide; arsenate co-treatment: none): -0.0311

Target: COG4 (UniProt Q9H9E3)
- thermal stability z-score (potassium arsenate): -0.419
- thermal stability z-score (lipoamide; [1]): -0.919
- thermal stability z-score (lipoamide; arsenate co-treatment: none): -1.44

Target: RNASEH2C (UniProt Q8TDP1)
Chain of UniProt Q8TDP1 (Q8TDP1 whole entry): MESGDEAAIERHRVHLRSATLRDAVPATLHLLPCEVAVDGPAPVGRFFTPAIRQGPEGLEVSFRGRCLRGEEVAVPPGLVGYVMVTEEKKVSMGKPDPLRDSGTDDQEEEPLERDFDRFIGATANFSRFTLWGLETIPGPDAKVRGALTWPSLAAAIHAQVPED
- thermal stability z-score (potassium arsenate): -0.406
- thermal stability z-score (lipoamide; [1]): -0.258
- thermal stability z-score (lipoamide; arsenate co-treatment: none): -0.493

Target: HMGB3 (UniProt O15347)
- thermal stability z-score (potassium arsenate): 0.0296
- thermal stability z-score (lipoamide; [1]): 0.138
- thermal stability z-score (lipoamide; arsenate co-treatment: none): 0.323

Target: BPGM (UniProt P07738)
Chain of UniProt P07738 (P07738 whole entry): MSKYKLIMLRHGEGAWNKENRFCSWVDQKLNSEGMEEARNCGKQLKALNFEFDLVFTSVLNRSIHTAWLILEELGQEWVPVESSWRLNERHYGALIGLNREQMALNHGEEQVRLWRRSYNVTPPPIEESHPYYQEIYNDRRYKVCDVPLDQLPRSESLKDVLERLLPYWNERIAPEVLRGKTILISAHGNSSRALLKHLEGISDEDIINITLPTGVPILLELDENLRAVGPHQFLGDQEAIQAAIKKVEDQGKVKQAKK
- thermal stability z-score (potassium arsenate): -1.82
- thermal stability z-score (lipoamide; [1]): -1.9
- thermal stability z-score (lipoamide; arsenate co-treatment: none): -0.479

Target: PHKG2 (UniProt P15735)
- thermal stability z-score (potassium arsenate): 0.714
- thermal stability z-score (lipoamide; [1]): 0.926
- thermal stability z-score (lipoamide; arsenate co-treatment: none): 1.04

Target: PPP2R5A (UniProt Q15172)
- thermal stability z-score (potassium arsenate): 0.703
- thermal stability z-score (lipoamide; [1]): 0.468
- thermal stability z-score (lipoamide; arsenate co-treatment: none): 0.527

Target: RPTOR (UniProt Q8N122)
- thermal stability z-score (potassium arsenate): 0.227
- thermal stability z-score (lipoamide; [1]): 0.0585
- thermal stability z-score (lipoamide; arsenate co-treatment: none): 0.132

Target: RWDD4 (UniProt Q6NW29)
- thermal stability z-score (potassium arsenate): 0.261
- thermal stability z-score (lipoamide; [1]): -0.526
- thermal stability z-score (lipoamide; arsenate co-treatment: none): -0.0479

Target: GPATCH8 (UniProt Q9UKJ3)
- thermal stability z-score (potassium arsenate): -0.238
- thermal stability z-score (lipoamide; [1]): 1.48
- thermal stability z-score (lipoamide; arsenate co-treatment: none): 0.761

Target: WASF2 (UniProt Q9Y6W5)
- thermal stability z-score (potassium arsenate): -0.206
- thermal stability z-score (lipoamide; [1]): -0.14
- thermal stability z-score (lipoamide; arsenate co-treatment: none): -0.155

Target: BIN1 (UniProt O00499)
- thermal stability z-score (potassium arsenate): 0.183
- thermal stability z-score (lipoamide; [1]): -0.407
- thermal stability z-score (lipoamide; arsenate co-treatment: none): -0.803

Target: PINX1 (UniProt Q96BK5)
Chain of UniProt Q96BK5 (Q96BK5 whole entry): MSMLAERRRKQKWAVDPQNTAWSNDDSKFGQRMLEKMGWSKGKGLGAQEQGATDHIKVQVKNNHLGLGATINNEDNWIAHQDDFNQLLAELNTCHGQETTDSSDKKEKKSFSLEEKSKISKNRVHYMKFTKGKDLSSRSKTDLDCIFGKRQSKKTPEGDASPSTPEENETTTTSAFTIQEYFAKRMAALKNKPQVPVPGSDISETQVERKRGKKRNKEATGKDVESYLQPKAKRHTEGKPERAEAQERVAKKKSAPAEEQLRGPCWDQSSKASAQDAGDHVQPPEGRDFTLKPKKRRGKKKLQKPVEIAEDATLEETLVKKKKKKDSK
- thermal stability z-score (potassium arsenate): -2.03
- thermal stability z-score (lipoamide; [1]): -0.717
- thermal stability z-score (lipoamide; arsenate co-treatment: none): -0.225

Target: PFDN2 (UniProt Q9UHV9)
Chain of UniProt Q9UHV9 (Q9UHV9 whole entry): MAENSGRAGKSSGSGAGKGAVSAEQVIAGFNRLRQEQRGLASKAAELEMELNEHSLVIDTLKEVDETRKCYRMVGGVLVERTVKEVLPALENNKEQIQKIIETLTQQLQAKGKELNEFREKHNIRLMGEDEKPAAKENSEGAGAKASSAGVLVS
- thermal stability z-score (potassium arsenate): 0.132
- thermal stability z-score (lipoamide; [1]): 0.967
- thermal stability z-score (lipoamide; arsenate co-treatment: none): 1.21

Target: DNAJC12 (UniProt Q9UKB3)
- thermal stability z-score (potassium arsenate): -0.108
- thermal stability z-score (lipoamide; [1]): -0.279
- thermal stability z-score (lipoamide; arsenate co-treatment: none): -0.182

Target: SNRPB|SNRPN
- thermal stability z-score (potassium arsenate): 0.578
- thermal stability z-score (lipoamide; [1]): 0.508
- thermal stability z-score (lipoamide; arsenate co-treatment: none): 0.162

Target: ZCCHC8 (UniProt Q6NZY4)
Chain of UniProt Q6NZY4 (Q6NZY4 whole entry): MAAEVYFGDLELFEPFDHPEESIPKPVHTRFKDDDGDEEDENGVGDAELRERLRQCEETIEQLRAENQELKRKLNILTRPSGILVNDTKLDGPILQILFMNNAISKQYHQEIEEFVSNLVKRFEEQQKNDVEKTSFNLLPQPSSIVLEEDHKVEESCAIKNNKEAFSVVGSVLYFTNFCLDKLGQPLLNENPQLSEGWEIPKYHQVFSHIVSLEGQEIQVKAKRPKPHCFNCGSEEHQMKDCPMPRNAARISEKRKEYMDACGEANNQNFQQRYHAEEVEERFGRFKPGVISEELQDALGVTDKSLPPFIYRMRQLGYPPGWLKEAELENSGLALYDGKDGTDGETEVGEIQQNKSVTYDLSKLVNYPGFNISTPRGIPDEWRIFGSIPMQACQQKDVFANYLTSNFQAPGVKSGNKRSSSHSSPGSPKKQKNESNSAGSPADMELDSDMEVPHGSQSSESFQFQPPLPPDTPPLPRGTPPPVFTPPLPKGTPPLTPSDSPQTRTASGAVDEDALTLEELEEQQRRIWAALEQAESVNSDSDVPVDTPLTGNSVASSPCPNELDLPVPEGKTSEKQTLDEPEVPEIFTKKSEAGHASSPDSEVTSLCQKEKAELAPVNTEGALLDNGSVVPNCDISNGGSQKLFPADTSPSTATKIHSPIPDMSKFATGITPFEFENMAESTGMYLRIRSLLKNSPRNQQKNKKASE
- thermal stability z-score (potassium arsenate): -0.318
- thermal stability z-score (lipoamide; [1]): 0.464
- thermal stability z-score (lipoamide; arsenate co-treatment: none): 0.344
